# Laboratory results reported in patent US8686113B2 (priority 2009, dated 2014).
# Like-named read-outs stand apart in the source and are kept apart here. Non-standard residues stand in square brackets, D forms with d. Residues, ends and D or L forms follow the SMILES beside them. No end group written: not given here. Hyp = O=C(O)[C@@H]1C[C@@H](O)CN1
# What was measured:
# E. coli BL21 A1 = type: cell-based, Escherichia coli; details: BL21, 20 h
# Method in brief: (§1)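 Broth microdilution in 1% TSB with twofold peptide series, final 128 μg/mL to 62.5 ng/mL, against 5×10^6 bacteria/mL stock suspension added 1:1. Incubated 20 h at 37 °C, growth read by absorbance at 595 nm; MIC is the lowest concentration with no growth, determined in triplicate.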
# M. luteus 10240 = assay: Growth inhibition assay (microdilution MIC); type: cell-based, Micrococcus luteus; details: 10240, 20 h
# Method in brief: as §1
# E. coli 045-849 SENTRY = details: ¼ Muller-Hinton medium
# Method: (§2) The minimum inhibitory concentrations (MIC) of the antimicrobial peptides and peptide derivatives were determined in microdilution assays. These used a continuous peptide dilution in sterile flat-bottomed 96-well microtiter plates (polystyrene, Greiner Bio-One GmbH, Frickenhausen, Germany) and a total volume of 100 μL per well. The aqueous peptide or peptidomimetic solutions were diluted with 1% TSB water, to obtain a final concentration of 256 μg/mL. 50 μL of the peptide or peptidomimetic solution was pipetted into the first well of each series and stirred. From this solution, 50 μL was transferred to the second well, stirred and again 50 μL was transferred to the next well, and so on. A double dilution series is obtained, beginning at 256 μg/mL in the first well to 125 ng/mL in the twelfth well. The bacteria, e.g. E. coli BL21 A1, were cultured overnight at 37° C. in nutrient broth (NB, Carl Roth GmbH+Co. KG, Karlsruhe, Germany). 50 μL of a 5×10^6 bacteria/mL suspension in 1% TSB was added to each well of the microtiter plate and thus a final concentration of the peptides or peptidomimetics from 128 μg/mL (well 1) to 62.5 ng/mL (well 12) was established in each series. The plates were incubated at 37° C. for 20 h and then the absorption was measured at 595 nm with a TECAN microtiter plate spectrophotometer (Tecan Trading AG, Mannedorf, Switzerland). The MIC values of all peptides and peptidomimetics were determined in triplicate. Sterile water was used as negative control.
# (§3) The tests were in this case carried out in Mueller-Hinton medium (¼ concentrated), which is equivalent to 1% TSB.
# E. coli ATCC BAA-457 = details: ¼ Muller-Hinton medium
# Method: as §2, §3
# E. coli D31 J. Wilson = details: ¼ Muller-Hinton medium
# Method: as §2, §3
# K. pneumoniae 012-3131 = system: K. pneumoniae 012-3131
# Method: as §2, §3
# K. pneumoniae ATCC 27799 = details: ATCC 27799
# Method: as §2, §3
# [1] = system: K. pneumoniae K6 ATCC 700603; details: ATCC 700603
# Method: as §2, §3
# [2] = system: P. aeruginosa 10 J. Wilson
# Method: as §2, §3
# P. aeruginosa 39324 = system: P. aeruginosa 39324
# Method: as §2, §3
# P. mirabilis ATCC 7002 = details: ATCC 7002
# Method: as §2, §3
# P. vulgaris ATCC 6896 = details: ATCC 6896
# Method: as §2, §3
# S. saprophyticus 15305 = details: 15305
# Method: as §2, §3
# [3] = system: S. typhimurium ATCC 14028
# Method: as §2, §3
# [4] = system: S. typhimurium ATCC 700408
# Method: as §2, §3
# [5] = system: S. typhimurium s5 (J. Weiser); details: ¼ Muller-Hinton medium
# Method: as §2, §3
# [6] = mouse, serum, Half-life in 25% mouse serum, 25% aqueous mouse serum, 37° C., 75 μg/mL peptide
# [7] = mouse, serum
# human erythrocytes = assay: Hemolysis test; type: cell-based; details: 1 h at 37° C., relative to Triton X-100
# From the text: Another possibility for investigating the cytotoxicity of the peptides and peptide derivatives is the hemolysis test. The hemolytic activity is investigated on human erythrocytes (Ryge T S & Hansen P R. Potent antibacterial lysine-peptoid hybrids identified from a positional scanning combinatorial library. Bioorganic & Medicinal Chemistry 14: 4444-51, 2006), which the Leipzig University Hospital (Germany) made available as human erythrocyte concentrate in sodium chloride-adenine-glucose-mannitol buffer (stored at 4° C.). The erythrocytes were centrifuged off at 1000 g and washed three times with ten times the volume of cold phosphate-buffered saline (PBS, pH 7.4). The erythrocytes were diluted to a final concentration of 1% in PBS. One hundred microliters of erythrocyte suspension was pipetted into each V-shaped well of a 96-well polypropylene microtiter plate (Greiner Bio-One GmbH). Then 100 μL of the peptides dissolved in PBS was added to each position, to obtain a dilution series from 600 μg/mL to 4.7 μg/mL in seven dilution steps. The microtiter plate was incubated at 37° C. for 1 h and then centrifuged at 1000*g. 100 μL was taken from the supernatant, transferred to a 96-well flat-bottomed polystyrene microtiter plate (Greiner Bio-One GmbH) and the absorption was determined at 405 nm in a Sunrise microtiter plate reader (Tecan Trading AG, Mannedorf, Switzerland), to evaluate the release of the heme group. PBS or 0.1% Triton X-100® ((p-tert-octylphenoxy) polyethoxyethanol; Fluka Chemie GmbH, Buchs, Switzerland) and melittin (SIGMA-Aldrich-Laborchemikalien, Taufkirchen, Germany) were used as negative or positive controls. All hemolysis tests were carried out twice independently as double determination and the degree of hemolysis was determined from the following equation (Park Y et al. A Leu-Lys-rich antimicrobial peptide: activity and mechanism. Biochimica et Biophysica Acta-Proteins and Proteomics 1645: 172-82, 2003): Epeptide−EPBS)/ETriton−EPBS)×100% E=extinction at 405 nm
# [8] = background statement; cited from earlier work
compound,measurement,setting,value
CC[C@H](C)[C@H](NC(=O)[C@H](CCCNC(=N)N)NC(=O)[C@H](CCCNC(=N)N)NC(=O)[C@@H]1C[C@@H](O)CN1C(=O)[C@@H]1CCCN1C(=O)[C@H](CCCNC(=N)N)NC(=O)[C@@H]1CCCN1C(=O)[C@H](CCCNC(=N)N)NC(=O)[C@@H]1CCCN1C(=O)[C@H](CC(C)C)NC(=O)[C@H](Cc1ccc(O)cc1)NC(=O)[C@@H]1CCCN1C(=O)[C@@H]1CCCN1C(=O)[C@H](CCCCN)NC(=O)[C@H](CC(=O)O)NC(=O)[C@@H](N)C(C)C)C(=O)N[C@@H](Cc1ccc(O)cc1)C(=O)N[C@@H](CC(N)=O)C(=O)N[C@@H](CCCNC(=N)N)C(N)=O [compound 24] (H-VDKPPYLPRPRP[Hyp]RRIYNR-NH2),MIC E. coli BL21 A1,E. coli BL21 A1,8 µg/mL
same,MIC M. luteus 10240,M. luteus 10240,8 µg/mL
same,MIC E. coli 045-849 SENTRY,E. coli 045-849 SENTRY,2 µg/mL
same,MIC E. coli SEQ 102ATCC # BAA-4 57,E. coli ATCC BAA-457,4 µg/mL
same,MIC E. coli D31 J. Wilson,E. coli D31 J. Wilson,1 µg/mL
same,MIC K. pneumoniae 012-3131,K. pneumoniae 012-3131,2 µg/mL
same,MIC K. pneumoniae ATCC 27799,K. pneumoniae ATCC 27799,8 µg/mL
same,MIC K. pneumoniae K6 ATCC 700603,[1],8 µg/mL
same,MIC P. aeruginosa 10 J. Wilson,[2],2 µg/mL
same,MIC P. aeruginosa 39324,P. aeruginosa 39324,4 µg/mL
same,MIC P. mirabilis ATCC 7002,P. mirabilis ATCC 7002,128 µg/mL
same,MIC P. vulgaris ATCC 6896,P. vulgaris ATCC 6896,128 µg/mL
same,MIC S. saprophyticus 15305,S. saprophyticus 15305,16 µg/mL
same,MIC S. typhimurium ATCC 14028,[3],2 µg/mL
same,MIC S. typhimurium ATCC 700408,[4],0.13 µg/mL
same,MIC S. typhimurium s5 (J. Weiser),[5],2 µg/mL
same,half-life,[6],60 min
same,half-life,[7],35 min
"(p-tert-octylphenoxy) polyethoxyethanol [Triton X-100, reference compound]",Degree of hemolysis [%] at 600 μg/mL,human erythrocytes,100%
GKPRPYSPRPTSHPRPIRV [compound 89],Degree of hemolysis [%] at 600 μg/mL,human erythrocytes,1.1%
"GKPRPYSPRPTSHPRPIRV-OH [SEQ ID NO. 89, reference compound]",MIC M. luteus 10240,M. luteus 10240,0.5 µg/mL
same,degradation in mammalian serum (25%),[8],broken down within an hour
GNNRPVYIPQPRPPHPRL [compound 87],Degree of hemolysis [%] at 600 μg/mL,human erythrocytes,1.2%
